Data on one compound can be found in patent US20250032457A1, “METHODS OF TREATING ANDROGENIC ALOPECIA AND/OR SKIN CONDITIONS” (priority 2020, published 2025).

In the test the test system is scalp of a human subject (hairline recession, hair loss and thinning). Put plainly: Topical administration to the scalp of a human subject with hairline recession, hair loss and thinning. As to conditions: 2% miconazole nitrate formulation, twice per day, observed after 3 months, one human subject, FIG. 2 vs FIG. 1.

Text: Hairline recession, hair thinning, and hair loss were observed prior to administration.

`Clc1ccc(COC(Cn2ccnc2)c2ccc(Cl)cc2Cl)c(Cl)c1` (centres unmarked) [miconazole]: the “hair growth on the scalp” value is reported as “promotion of hair growth elsewhere on the scalp”. Moreover, where the note is “topical on scalp”, the hairline recession entry is reported as “reversal of hairline recession”.
